{"source": "patent US10393755B2", "about": "“Compositions and methods for treating eye infections and disease” (UNIVERSITY OF VIRGINIA PATENT FOUNDATION, priority 2014, dated 2019)", "molecules": {"B1": {"name": "Cross-linked lacritin: lacritin monomer cross-linked into inactive multimers by tissue transglutaminase (protein)", "chain": "EDASSDSTGADPAQEAGTSKPNEEISGPAEPASPPETTTTAQETSAAAVQGTAKVTSSRQELNPLKSIVEKSILLTEQALAKAGKGMHGGVPGGKQFIENGSEFAQKLLKKFSLLKPWA"}, "B2": {"name": "LS96: lacritin fused to soluble ELP (VPGSG)96; thermally nonresponsive control (protein)", "chain": "GEDASSDSTGADPAQEAGTSKPNEEISGPAEPASPPETTTTAQETSAAAVQGTAKVTSSRQELNPLKSIVEKSILLTEQALAKAGKGMHGGVPGGKQFIENGSEFAQKLLKKFSLLKPWAGLVPRGSGVPGSGY", "modifications": "ELP lacritin fusion construct; (129)..(133) the sequence VPGSG is directly repeated 96 times", "notes": "lacritin fused to soluble ELP (VPGSG)96; thermally nonresponsive control"}}, "key": {"HCE-T cells [1]": {"system": "HCE-T cells", "experiment": "Lacritin accelerated autophagy and FOXO3 phosphorylation, inhibitors", "format": "cell-based, human", "method": "Lacritin targeting of corneal sensory neurons. Adrenergic α2C selective antagonist MK912 inhibits lacritin accelerated autophagy in HCE-T cells, as does the syndecan-1 inhibitor xyloside. […] Activity profiles of corneal neurons before, during and 1 hr during/after 10 μM lacritin reveal a small inhibition (from ˜12 to ˜8 spikes/s) follows immediately after the application of lacritin presumably due to α2 adrenergic receptor activation which inhibits TRPM8 channels. Removal of this inhibition after 1 hr of lacritin and washout causes an enhanced excitation of dry (from ˜20 to ˜23 spikes/s) and wet response (from ˜12 to ˜16 spikes/s)."}, "HCE-T cells [2]": {"system": "HCE-T cells", "experiment": "Viability (MTT) / cytoprotection of IFNG/TNF stressed cells", "format": "cell-based, human", "method": "Viability was monitored using the 3-(4,5-dimethyl[…])-2,5-diphenyltetrazolium bromide) (MTT) reduction assay (Invitrogen) or a Nucleocounter (New Brunswick Scientific, Edison, N.J.). Cells were seeded overnight in 24-well plates at a density of 500 cells/mm2 to give rise to ˜80% confluence the next day. Then cells were sensitized overnight in IFNG (100 units/ml) in α-MEM and treated in triplicate for 15 min with 10 nm lacritin or lacritin deletion or point mutants or with different lacritin doses in α-MEM together with TNF as described above.\nInclusion of inhibitors was simultaneous with the addition of lacritin or C-25 in all viability and other experiments except where otherwise noted. Inhibitors included PI103 (0.5 μm; EMD, Darmstadt, Germany), rapamycin (10 and 100 nm; EMD), and cyclosporin A (0.1 μm; EMD). One exception was 4-methylumbelliferyl-β-d-xylopyranoside (“xyloside”; 70 and 80 nm; Sigma), which was added during IFNG sensitization and during treatment with TNF and lacritin. The assay was completed by addition of MTT (5 mg/ml) to each well (at 37° C. for 4 h) followed by isopropanol with 0.04 n HCl and measurement at 570 nm using a reference wavelength of 630 nm. Viability was assayed in a Nucleocounter (New Brunswick Scientific)."}, "bacteria": {"system": "bacteria", "experiment": "Lacritin inhibition (colony count) assay, bacterium not given", "format": "cell-based", "settings": "synthetic peptides", "method": "(§1) Bacterial Growth, SYTOX Green Assays, and on Column Cleavage—E. coli (ATCC (Manassas Va.) catalog no. 10536), S. epidermidis (ATCC catalog no. 12228), and P. aeruginosa (ATCC catalog no. 9027) were grown to mid-log phase in 50 ml of Luria-Bertani (LB) medium and washed three times in phosphate buffer containing 10 mM NaCl (pH 7.2; PB—NaCl) with centrifugation. Pellets were resuspended in 1 ml of PB—NaCl.\n(§2) For lacritin inhibition assays, 50 ul of bacterial pellets each diluted 1:100 in PB—NaCl were incubated for 1.5 h (37° C.) with 100 ul of lacritin, lacritin truncations, or synthetic peptides at a final concentration of 0.1-6 uM. Mixtures were diluted 1:10 in PB—NaCl before plating 100 ul in quadruplicate on LB agar plates for overnight growth at 37° C. Colonies were manually counted. In other experiments, mid-log E. coli was treated at 37° C. for 0, 1, 2, or 3 h with 2 uM lacritin or lacritin truncations or with ampicillin (5 uM) or tetracycline (2 uM). After each treatment, 100 ul was centrifuged, resuspended in 1 ml of PB—NaCl, and plated (100 ul) onto LB agar for overnight growth (37° C.) and colony counting."}, "[3]": {"format": "in vitro ADME, human", "method": "A limitation of most synthetic peptide drugs is their protease sensitivity. […] Retropepsin would inactivate LACRIPEP, while cathepsin K would have no effect. However neither protease is found in normal human tears. Nonetheless, tears are rich in other proteases. We therefore incubated LACRIPEP in normal human tears at 37° C. for 2, 4, 6 and 16 hr. For immunoblotting, we first removed all endogenous lacritin by immunodepletion. […] (FIG. 6B)."}, "E. coli": {"system": "E. coli", "experiment": "Lacritin inhibition (colony count) assay, E. coli", "format": "cell-based", "settings": "dose response studies; read-out: Half-maximal inhibition", "method": "as §1, §2"}, "P. aeruginosa": {"system": "P. aeruginosa", "experiment": "Lacritin inhibition (colony count) assay, P. aeruginosa", "format": "cell-based", "settings": "dose response studies; read-out: Half-maximal inhibition", "method": "as §1, §2"}, "HCE-T cells [4]": {"system": "HCE-T cells", "experiment": "FOXO3 translocation assay in IFNG/TNF stressed HCE-T cells", "format": "cell-based, human", "settings": "10 nM, interferon-γ and TNF stressed HCE-T cells", "method": "For FOXO3 translocation assays, HCE-T cells were grown in triplicate to subconfluence (˜50%) on coverslips in α-MEM (5.54 mm glucose), sensitized overnight in IFNG (100 units/ml; Roche Applied Science), and treated for 15 min with normal or dry eye tears diluted 1:100 in α-MEM together with TNF (50 ng/ml; PeproTech, Rocky Hill, N.J.) without or with 10 nm lacritin or C-25. Cells were washed, fixed with 4% paraformaldehyde, and immunostained for FOXO3 (1:200; Millipore, Billerica, Mass.) followed by goat anti-rabbit secondary antibody and visualization on a Zeiss LSM 700 microscope."}, "syndecan-1": {"target": "T1, syndecan-1 (Homo sapiens, UniProt P18827, L136Q)", "T1 sequence (P18827 23-310 L136Q)": "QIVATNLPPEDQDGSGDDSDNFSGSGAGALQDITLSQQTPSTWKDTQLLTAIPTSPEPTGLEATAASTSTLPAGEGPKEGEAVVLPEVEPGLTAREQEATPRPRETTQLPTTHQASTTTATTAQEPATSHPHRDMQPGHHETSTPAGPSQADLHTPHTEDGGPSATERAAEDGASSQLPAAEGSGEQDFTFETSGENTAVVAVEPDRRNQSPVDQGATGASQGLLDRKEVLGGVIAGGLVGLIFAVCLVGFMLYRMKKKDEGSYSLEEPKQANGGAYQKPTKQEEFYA", "experiment": "Binding to syndecan-1"}, "[5]": {"experiment": "Phase behavior and nanoparticle formation (optical density, DLS, TEM)", "format": "physicochemical", "settings": "optical density", "method": "The phase diagram for LSI fusion protein was characterized by optical density change at 350 nm as a function of solution temperature using a DU800 UV-Vis Spectrophotometer (Beckman Coulter, Brea, Calif.). Tt was defined at the point of the maximum first derivative. Self-assembly of nanoparticles was measured using dynamic light scattering (DLS) using a DynaPro-LSR Plate Reader (Wyatt Technology, Santa Barbara, Calif.). Light scattering data were collected at regular temperature intervals (1° C.) as solutions were heated from 5 to 50° C. The results were analyzed using a Rayleigh sphere model and fitted into a cumulant algorithm based on the sum-of-squares value.\nThe TEM imaging was carried out on a FEI Tecnai 12 TWIN microscope (Hillsboro, Oreg.) at 100 kV. Briefly, a 100 uM solution (5 uL) was initially deposited on a copper grid with carbon film (CF400-Cu, Election Microscopy Sciences, Hatfield, Pa.). After removing the excess amount of solution with filter paper, the samples were negatively stained with 2% uranyl acetate, followed by removing excess uranyl acetate after 30 s. b The samples were then dried under room temperature for at least 3 h before use in imaging."}}, "note": "No end group written: not given here."}
{"molecule": "CN1CC[C@]2(CCN3CCc4c(oc5ccccc45)[C@@H]3C2)N(C)C1=O", "note": "[MK912]", "values": [{"measurement": "Effect on lacritin stimulated FOXO3 phosphorylation", "setting": "HCE-T cells [1]", "value": "inhibit"}, {"measurement": "Effect on lacritin accelerated autophagy", "setting": "HCE-T cells [1]; HCE-T cells", "value": "inhibits"}]}
{"molecule": "Cc1cc(=O)oc2cc(O[C@@H]3OC[C@@H](O)[C@H](O)[C@H]3O)ccc12", "note": "[xyloside, 4-methylumbelliferyl-β-d-xylopyranoside]", "values": [{"measurement": "Effect on lacritin stimulated FOXO3 phosphorylation", "setting": "HCE-T cells [1]", "value": "inhibit"}, {"measurement": "Effect on lacritin cytoprotective activity", "setting": "HCE-T cells [2]; cells cultured overnight in xyloside", "value": "completely abrogated"}]}
{"molecule": "AKAGKGMHGGVPGG (listed as Homo sapiens) [N-80/C-25]", "values": [{"measurement": "Colonies with synthetic peptides", "setting": "bacteria", "value": "colonies were abundant"}]}
{"molecule": "Ac-KQFIENGSEFAQKLLKKFS-NH2 [N-94/C-6, KQFIENGSEFAQKLLKKFS]", "values": [{"measurement": "Epitopes by immunoblotting after incubation in tears", "setting": "[3]", "value": "loses epitopes"}, {"measurement": "Stability relative to LACRIPEP", "setting": "[3]", "value": "not as stable"}, {"measurement": "Bactericidal activity of synthetic peptides", "setting": "bacteria", "value": "slightly so"}, {"measurement": "Bactericidal activity of synthetic peptides", "setting": "bacteria; listed as SEQ ID NO: 5", "value": "substantially reduced the bactericidal activity"}, {"measurement": "Activity of synthetic peptide relative to lacritin", "setting": "HCE-T cells [2]; generated synthetically", "value": "as potent as lacritin"}]}
{"molecule": "Ac-KQFIENGSEFAQKLLKKFSLLKPWA (N-terminus assumed) [LACRIPEP]", "values": [{"measurement": "Time stable in human tears (immunoblot)", "setting": "[3]", "value": "at least 16 hr"}]}
{"molecule": "FAQKLLKKFSLLKPWA [N-104]", "values": [{"measurement": "IC50", "setting": "E. coli", "value": "~1000", "unit": "nM"}, {"measurement": "Bactericidal activity of synthetic peptides", "setting": "bacteria", "value": "fully active"}, {"measurement": "IC50", "setting": "P. aeruginosa", "value": "1000 to 1500", "unit": "nM"}]}
{"molecule": "LKSIVEKSILLTEQALAKAGKGMH (listed as Homo sapiens) [N-64/C-31]", "values": [{"measurement": "Colonies with synthetic peptides", "setting": "bacteria", "value": "colonies were abundant"}]}
{"molecule": "B1", "values": [{"measurement": "FOXO3 cytoplasmic staining (pro-survival activity)", "setting": "HCE-T cells [4]", "value": "less active"}, {"measurement": "FOXO3 cytoplasmic staining (pro-survival activity)", "setting": "HCE-T cells [4]; listed as tissue transglutaminase polymerized lacritin", "value": "inactive"}, {"measurement": "Binding to syndecan-1", "setting": "syndecan-1", "value": "substantially less"}]}
{"molecule": "B2", "values": [{"measurement": "Phase transitions in phosphate buffered saline", "setting": "[5]", "value": "does not display any observable phase transitions"}]}
